Data taken from patent US12495798B2, “Nicotinamide compound and herbicidal composition comprising compound” (KOREA RESEARCH INSTITUTE OF CHEMICAL TECHNOLOGY, priority 2019, dated 2025).

What was measured:
Type in all cases: in vivo
sorghum [1] = assay: Herbicidal activity test against upland field weeds (foliar treatment test); conditions: 50 g ai/ha, scale 0-100; for plant injury at 50 g/ha: Sorghum
In short: (§1)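 Weeds were raised from seed or rootstocks in horticultural soil in a greenhouse (30±5° C., 14/10 h light/dark), then foliage was hand-sprayed with compound at 50 or 75 g a.i./ha in 50% acetone with 0.1% Tween-20. Control was scored visually 0–100 against untreated plants after 14 days, or 21 if needed.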

barnyard grass [2] = assay: as above; conditions: 50 g ai/ha, scale 0-100; for pest or weed control at 50 g/ha: Echinochloa crus-galli
In short: as §1

quack grass [3] = assay: as above; set-up: key to Foliar treatment herbicidal activity, quack grass: 0 (no control); 100 (complete control); conditions: 50 g ai/ha, scale 0-100
In short: as §1

crabgrass [4] = assay: as above; set-up: key to Foliar treatment herbicidal activity, Crabgrass: 0 (no control); 100 (complete control); conditions: 50 g ai/ha, scale 0-100
In short: as §1

fall panicum [5] = assay: as above; conditions: 50 g ai/ha, scale 0-100; for pest or weed control at 50 g/ha: Panicum dichotomiflorum
In short: as §1

black nightshade [6] = assay: as above; set-up: key to Foliar treatment herbicidal activity, black nightshade: 0 (no control); 100 (complete control); conditions: 50 g ai/ha, scale 0-100
In short: as §1

indian jointvetch [7] = assay: as above; set-up: key to Foliar treatment herbicidal activity, Indian jointvetch: 0 (no control); 100 (complete control); conditions: 50 g ai/ha, scale 0-100
In short: as §1

velvetleaf [8] = assay: as above; set-up: key to Foliar treatment herbicidal activity, velvet leaf: 0 (no control); 100 (complete control); conditions: 50 g ai/ha; for Foliar treatment herbicidal activity, velvet leaf: scale 0-100
In short: as §1

cocklebur [9] = assay: as above; conditions: 50 g ai/ha, scale 0-100; for pest or weed control at 50 g/ha: Xanthium strumarium
In short: as §1

sorghum [10] = assay: Herbicidal activity test against upland field weeds (soil treatment test); set-up: key to Soil treatment herbicidal activity, Sorghum: 0 (no control); 100 (complete control); conditions: 50 g ai/ha, scale 0 (no control) to 100 (complete control)
Description: (§2) Experimental Example 2: Herbicidal Activity Test Against Upland Field Weeds (Soil Treatment Test) Soil treatment was performed as follows: After filling a square plastic pot having a surface area of 350 cm^2 with sandy loam mixed with 1 g per pot (350 cm^2) of horticultural mixed fertilizer (N:P:K=11:10:11), seeds (10˜15 grains) or rootstocks (2 pieces) of 5 kinds of grassy weeds of sorghum, barnyard grass, quack grass, crabgrass, fall panicum, and 5 kinds of broadleaf weeds of black nightshade, indian jointvetch, velvetleaf, cocklebur, bindweed, which had been stored in a low temperature (6° C.), were sown. The day after sowing, test compound solutions were made by diluting with a preparation solution (including 50% acetone, 0.1% Tween-20) so that the final treatment amount of the test compounds was 50 or 75 g a.i./ha. The prepared test compound solution was used for treating soil surface by hand-spraying 14 mL per pot in a fume hood. After the treatment, it was managed under the same greenhouse conditions (average temperature 30±5° C., light/dark=14/10 hours), and after 14 days (after 21 days if necessary), the external symptoms and efficacy were investigated according to the scale of 0 (no control) to 100 (complete control). The results of Table 8 were obtained by evaluating weed control value to the untreated control by conducting visual assessment.

barnyard grass [11] = assay: as above; set-up: key to Soil treatment herbicidal activity, barnyard grass: 0 (no control); 100 (complete control); conditions: 50 g ai/ha, scale 0 (no control) to 100 (complete control)
Description: as §2

quack grass [12] = assay: as above; set-up: key to Soil treatment herbicidal activity, quack grass: 0 (no control); 100 (complete control); conditions: 50 g ai/ha, scale 0 (no control) to 100 (complete control)
Description: as §2

crabgrass [13] = assay: as above; set-up: key to Soil treatment herbicidal activity, Crabgrass: 0 (no control); 100 (complete control); conditions: 50 g ai/ha, scale 0 (no control) to 100 (complete control)
Description: as §2

black nightshade [14] = assay: as above; set-up: key to Soil treatment herbicidal activity, black nightshade: 0 (no control); 100 (complete control); conditions: 50 g ai/ha, scale 0 (no control) to 100 (complete control); for pest or weed control at 50 g/ha: Solanum nigrum
Description: as §2

indian jointvetch [15] = assay: as above; set-up: key to Soil treatment herbicidal activity, Indian jointvetch: 0 (no control); 100 (complete control); conditions: 50 g ai/ha, scale 0 (no control) to 100 (complete control)
Description: as §2

velvetleaf [16] = assay: as above; set-up: key to Soil treatment herbicidal activity, velvet leaf: 0 (no control); 100 (complete control); conditions: 50 g ai/ha, scale 0 (no control) to 100 (complete control)
Description: as §2

cocklebur [17] = assay: as above; set-up: key to Soil treatment herbicidal activity, Cocklebur: 0 (no control); 100 (complete control); conditions: 50 g ai/ha, scale 0 (no control) to 100 (complete control)
Description: as §2

bindweed [18] = assay: Herbicidal activity test against upland field weeds (foliar treatment test); set-up: key to Foliar treatment herbicidal activity, Bindweed: 0 (no control); 100 (complete control); conditions: 50 g ai/ha, scale 0-100
In short: as §1

fall panicum [19] = assay: Herbicidal activity test against upland field weeds (soil treatment test); set-up: key to Soil treatment herbicidal activity, Fall panicum: 0 (no control); 100 (complete control); conditions: 50 g ai/ha, scale 0 (no control) to 100 (complete control)
Description: as §2

bindweed [20] = assay: as above; set-up: key to Soil treatment herbicidal activity, Bindweed: 0 (no control); 100 (complete control); conditions: 50 g ai/ha, scale 0 (no control) to 100 (complete control)
Description: as §2

corn = assay: Phytotoxicity test for upland field crops (foliar treatment test); set-up: key: 0 (no harm); 9 (complete withered)
In short: (§3)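 Application rate ranged 19˜300 g a.i./ha, delivered as a foliar spray (100 ml/m^2) in 33% acetone with 0.1% Tween-20 to crops raised at 30±5 °C under 14/10 h light/dark. Symptoms were assessed 7 and 14 days post-treatment, extending to 21 days where necessary, using a 0–9 injury grade relative to untreated control.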

wheat = assay: as above; set-up: key: 0 (no harm); 9 (complete withered)
In short: as §3

[21] = 50 g ai/ha, Corn (7 days after treatment)
[22] = 50 g ai/ha, Corn (14 days after treatment)
[23] = 100 g ai/ha, Corn (7 days after treatment)
[24] = 100 g ai/ha, Corn (14 days after treatment)
[25] = 50 g ai/ha, Wheat (7 days after treatment)
[26] = 50 g ai/ha, Wheat (14 days after treatment)
[27] = 100 g ai/ha, Wheat (7 days after treatment)
[28] = 100 g ai/ha, Wheat (14 days after treatment)

| SMILES | plant injury at 50 g/ha (sorghum [1]) | pest or weed control at 50 g/ha (barnyard grass [2]) | Foliar treatment herbicidal activity, Crabgrass (crabgrass [4]) | pest or weed control at 50 g/ha (fall panicum [5]) | Foliar treatment herbicidal activity, black nightshade (black nightshade [6]) | pest or weed control at 50 g/ha (indian jointvetch [7]) | Foliar treatment herbicidal activity, velvet leaf (velvetleaf [8]) | pest or weed control at 50 g/ha (cocklebur [9]) | Soil treatment herbicidal activity, Sorghum (sorghum [10]) | Soil treatment herbicidal activity, barnyard grass (barnyard grass [11]) | Soil treatment herbicidal activity, quack grass (quack grass [12]) | Soil treatment herbicidal activity, Crabgrass (crabgrass [13]) | pest or weed control at 50 g/ha (black nightshade [14]) | Soil treatment herbicidal activity, Indian jointvetch (indian jointvetch [15]) | Foliar treatment herbicidal activity, Sorghum (sorghum [1]) | Foliar treatment herbicidal activity, barnyard grass (barnyard grass [2]) | Foliar treatment herbicidal activity, quack grass (quack grass [3]) | Foliar treatment herbicidal activity, Fall panicum (fall panicum [5]) | Soil treatment herbicidal activity, Fall panicum (fall panicum [19]) | Soil treatment herbicidal activity, velvet leaf (velvetleaf [16]) | other results |
| --- | --- | --- | --- | --- | --- | --- | --- | --- | --- | --- | --- | --- | --- | --- | --- | --- | --- | --- | --- | --- | --- |
| CSc1nc(COCc2nc(C(F)(F)F)ccc2C(=O)Nc2nnnn2C)nn1C [Compound No. 2-131, N-(1-methyl-1H-tetrazol-5-yl)-2-(((1-methyl-5-(methylthio)-1H-1,2,4-triazol-3-yl)methoxy)methyl)-6-(trifluoromethyl)nicotinamide] | 40% | 98% | 100 | 70% | 100 | 70% | 100 | 80% | 0 | 0 | 0 | 0 | 98% | 100 | – | – | – | – | – | – | pest or weed control at 50 g/ha (quack grass [3]): 10%; pest or weed control at 50 g/ha (velvetleaf [16]; Abutilon theophrasti, read-out: Soil treatment herbicidal activity, velvet leaf): 98%; Soil treatment herbicidal activity, Cocklebur (cocklebur [17]): 0 |
| COC(=O)OC(C)N(C(=O)c1ccc(C(F)(F)F)nc1CSCc1nnn(C)n1)c1nnnn1C (stereo not drawn) [Compound No. 4-3, methyl(1-(N-(1-methyl-1H-tetrazol-5-yl)-2-((((2-methyl-2H-tetrazol-5-yl)methyl)thio)methyl)-6-(trifluoromethyl)nicotinamido)ethyl)carbonate] | – | – | 98 | – | 100 | – | 98 | – | 0 | 0 | 0 | 98 | – | 0 | 80 | 98 | 0 | 80 | 0 | 50 | Foliar treatment herbicidal activity, Indian jointvetch (indian jointvetch [7]): 100; Foliar treatment herbicidal activity, Cocklebur (cocklebur [9]): 98; Foliar treatment herbicidal activity, Bindweed (bindweed [18]): 100; Soil treatment herbicidal activity, black nightshade (black nightshade [14]): 100; Soil treatment herbicidal activity, Bindweed (bindweed [20]): 0; Foliar treatment phytotoxicity, Corn (corn; [21]): 0; Foliar treatment phytotoxicity, Corn (corn; [22]): 0; Foliar treatment phytotoxicity, Corn (corn; [23]): 1; Foliar treatment phytotoxicity, Corn (corn; [24]): 0; Foliar treatment phytotoxicity, Wheat (wheat; [25]): 0; Foliar treatment phytotoxicity, Wheat (wheat; [26]): 0; Foliar treatment phytotoxicity, Wheat (wheat; [27]): 0; Foliar treatment phytotoxicity, Wheat (wheat; [28]): 0 |
| Cn1nnc(CSCc2nc(C(F)(F)F)ccc2C(=S)Nc2nnnn2C)n1 [Compound No. 2-107, N-(1-methyl-1H-tetrazol-5-yl)-2-((((2-methyl-2H-tetrazol-5-yl)methyl)thio)methyl)-6-(trifluoromethyl)pyridin-3-carbothioamide] | 70% | 70% | – | 60% | 100 | 98% | – | 98% | – | 0 | 0 | 0 | 70% | 0 | – | – | 0 | – | 0 | 100 | pest or weed control at 50 g/ha (crabgrass [4]; Digitaria sanguinalis): 95%; pest or weed control at 50 g/ha (velvetleaf [8]; Abutilon theophrasti, scale 0-100, read-out: Foliar treatment herbicidal activity, velvet leaf): 70%; pest or weed control at 50 g/ha (bindweed [18]): 98%; plant injury at 50 g/ha (sorghum [10]; Sorghum): 20%; pest or weed control at 50 g/ha (bindweed [20]): 40%; Foliar treatment phytotoxicity, Corn (corn; [21]): 1; Foliar treatment phytotoxicity, Corn (corn; [22]): 0; Foliar treatment phytotoxicity, Corn (corn; [23]): 0; Foliar treatment phytotoxicity, Corn (corn; [24]): 0; Foliar treatment phytotoxicity, Wheat (wheat; [25]): 3; Foliar treatment phytotoxicity, Wheat (wheat; [26]): 3; Foliar treatment phytotoxicity, Wheat (wheat; [27]): 4; Foliar treatment phytotoxicity, Wheat (wheat; [28]): 3 |
| CC(OC(=O)OC1CCCCC1)N(C(=O)c1ccc(C(F)(F)F)nc1COCc1nnn(C)n1)c1nnnn1C (stereo not drawn) [Compound No. 4-11, cyclohexyl(1-(N-(1-methyl-1H-tetrazol-5-yl)-2-(((2-methyl-2H-tetrazol-5-yl)methoxy)methyl)-6-(trifluoromethyl)nicotinamido)ethyl)carbonate] | – | – | 98 | – | 100 | – | 100 | – | 0 | 100 | 0 | 100 | – | 40 | 60 | 98 | 0 | 95 | 60 | 100 | Foliar treatment herbicidal activity, Indian jointvetch (indian jointvetch [7]): 98; Foliar treatment herbicidal activity, Cocklebur (cocklebur [9]): 98; Foliar treatment herbicidal activity, Bindweed (bindweed [18]): 100; Soil treatment herbicidal activity, black nightshade (black nightshade [14]): 100; Soil treatment herbicidal activity, Bindweed (bindweed [20]): 0 |
